Results taken from patent US7833967B2, “Synthetic antimicrobial polypeptides” (priority 2003, dated 2010).

Tested on: E. coli TOP10
Assay: Suicide expression system (SES) growth inhibition
Type: cell-based
Settings: Table 4; variants of SEQ ID NO:10, re-tested in the Bioscreen C

Row | Substance | Growth inhibition (%)
1 | 114 (RRRPLRPPLRPPFRPPLRPPFRPPFRP; Synthetic antimicrobial peptide) [compound 114] | 74
2 | 115 (RRRPLRPPFRPPIRPPFRPPFRPPFRP; Synthetic antimicrobial peptide) [compound 115] | 79
3 | 116 (RRRPIRPPFRPPFRPPVRPPIRPPFRP; Synthetic antimicrobial peptide) [compound 116] | 69
4 | 117 (RRRPIRPPIRPPFRPPFRPPIRPPFRP; Synthetic antimicrobial peptide) [compound 117] | 77
5 | 118 (RRRPFRPPFRPPLRPPFRPPVRPPLRP; Synthetic antimicrobial peptide) [compound 118] | 73
6 | 119 (RRRPIRPPFRPPIRPPFRPPVRPPVRP; Synthetic antimicrobial peptide) [compound 119] | 69
7 | 120 (RRRPLRPPFRPPFRPPFRPPVRPPIRP; Synthetic antimicrobial peptide) [compound 120] | 68
8 | 121 (RRRPIRPPLRPPVRPPIRPPFRPPFRP; Synthetic antimicrobial peptide) [compound 121] | 65
9 | 122 (RRRPFRPPFRPPFRPPVRPPFRPPLRP; Synthetic antimicrobial peptide) [compound 122] | 64
10 | 123 (RRRPFRPPLRPPIRPPIRPPFRPPFRP; Synthetic antimicrobial peptide) [compound 123] | 65
11 | 124 (RRRPFRPPIRPPLRPPVRPPLRPPFRP; Synthetic antimicrobial peptide) [compound 124] | 73
12 | 125 (RRRPIRPPFRPPLRPPFRPPVRPPVRP; Synthetic antimicrobial peptide) [compound 125] | 73
13 | 126 (RRRPIRPPIRPPLRPPFRPPFRPPFRP; Synthetic antimicrobial peptide) [compound 126] | 77
14 | 127 (RRRPIRPPFRPPLRPPFRPPFRPPLRP; Synthetic antimicrobial peptide) [compound 127] | 67
15 | 128 (RRRPFRPPFRPPLRPPFRPPVRPPLRP; Synthetic antimicrobial peptide) [compound 128] | 69
16 | 129 (RRRPFRPPFRPPVRPPFRPPIRPPLRP; Synthetic antimicrobial peptide) [compound 129] | 69
17 | 130 (RRRPFRPPIRPPLRPPFRPPVRPPLRP; Synthetic antimicrobial peptide) [compound 130] | 78
18 | 131 (RRRPIRPPFRPPFRPPIRPPIRPPVRP; Synthetic antimicrobial peptide) [compound 131] | 75
19 | 132 (RRRPFRPPFRPPLRPPVRPPVRPPIRP; Synthetic antimicrobial peptide) [compound 132] | 72
20 | 133 (RRRPFRPPIRPPFRPPVRPPIRPPVRP; Synthetic antimicrobial peptide) [compound 133] | 62
21 | 134 (RRRPFRPPFRPPFRPPVRPPLRPPVRP; Synthetic antimicrobial peptide) [compound 134] | 68
22 | 135 (RRRPIRPPIRPPIRPPIRPPIRPPLRP; Synthetic antimicrobial peptide) [compound 135] | 38

Row | Substance | Growth inhibition (%)
23 | 136 (RRRPFRPPFRPPIRPPFRPPIRPPLRP; Synthetic antimicrobial peptide) [compound 136] | 77
24 | 137 (RRRPLRPPFRPPFRPPIRPPFRPPVRP; Synthetic antimicrobial peptide) [compound 137] | 58
25 | 138 (RRRPLRPPFRPPVRPPFRPPFRPPFRP; Synthetic antimicrobial peptide) [compound 138] | 78
26 | 139 (RRRPFRPPFRPPIRPPFRPPIRPPVRP; Synthetic antimicrobial peptide) [compound 139] | 67
27 | 140 (RRRPIRPPIRPPFRPPVRPPVRPPFRP; Synthetic antimicrobial peptide) [compound 140] | 70
28 | 141 (RRRPIRPPIRPPFRPPFRPPLRPPIRP; Synthetic antimicrobial peptide) [compound 141] | 65
29 | 142 (RRRPLRPPIRPPVRPPFRPPVRPPFRP; Synthetic antimicrobial peptide) [compound 142] | 70
30 | 143 (RRRPFRPPVRPPVRPPFRPPLRPPVRP; Synthetic antimicrobial peptide) [compound 143] | 43
31 | 144 (RRRPIRPPLRPPVRPPVRPPFRPPFRP; Synthetic antimicrobial peptide) [compound 144] | 64
32 | 145 (RRRPLRPPVRPPFRPPFRPPLRPPFRP; Synthetic antimicrobial peptide) [compound 145] | 59
33 | 146 (RRRPLRPPFRPPIRPPFRPPFRPPLRP; Synthetic antimicrobial peptide) [compound 146] | 68
34 | 147 (RRRPFRPPFRPPIRPPVRPPVRPPFRP; Synthetic antimicrobial peptide) [compound 147] | 79
35 | 148 (RRRPIRPPFRPPFRPPFRPPFRPPLRP; Synthetic antimicrobial peptide) [compound 148] | 76
36 | 149 (RRRPIRPPIRPPFRPPFRPPVRPPVRP; Synthetic antimicrobial peptide) [compound 149] | 62
37 | 150 (RRRPIRPPIRPPFRPPIRPPFRPPVRP; Synthetic antimicrobial peptide) [compound 150] | 68
38 | 151 (RRRPLRPPVRPPLRPPVRPPFRPPFRP; Synthetic antimicrobial peptide) [compound 151] | 68
39 | 152 (RRRPFRPPFRPPFRPPFRPPVRPPIRP; Synthetic antimicrobial peptide) [compound 152] | 75
40 | 153 (RRRPIRPPFRPPIRPPVRPPIRPPFRP; Synthetic antimicrobial peptide) [compound 153] | 68
41 | 154 (RRRPFRPPFRPPVRPPVRPPFRPPFRP; Synthetic antimicrobial peptide) [compound 154] | 75
42 | 155 (RRRPFRPPFRPPFRPPFRPPFRPPLRP; Synthetic antimicrobial peptide) [compound 155] | 83
43 | 156 (RRRPFRPPLRPPFRPPFRPPIRPPFRP; Synthetic antimicrobial peptide) [compound 156] | 67
44 | 157 (RRRPIRPPFRPPIRPPFRPPVRPPLRP; Synthetic antimicrobial peptide) [compound 157] | 64

Row | Substance | Growth inhibition (%)
45 | 158 (RRRPIRPPFRPPIRPPIRPPIRPPVRP; Synthetic antimicrobial peptide) [compound 158] | 67
46 | 159 (RRRPVRPPIRPPIRPPVRPPLRPPVRP; Synthetic antimicrobial peptide) [compound 159] | 35
47 | 160 (RRRPFRPPVRPPFRPPVRPPFRPPFRP; Synthetic antimicrobial peptide) [compound 160] | 77
48 | 161 (RRRPFRPPVRPPIRPPVRPPFRPPFRP; Synthetic antimicrobial peptide) [compound 161] | 78
49 | 162 (RRRPFRPPIRPPFRPPFRPPLRPPLRP; Synthetic antimicrobial peptide) [compound 162] | 68
50 | 163 (RRRPIRPPFRPPFRPPFRPPIRPPIRP; Synthetic antimicrobial peptide) [compound 163] | 79
51 | 164 (RRRPFRPPIRPPLRPPFRPPFRPPFRP; Synthetic antimicrobial peptide) [compound 164] | 78
52 | 165 (RRRPFRPPLRPPFRPPVRPPLRPPVRP; Synthetic antimicrobial peptide) [compound 165] | 65
53 | 166 (RRRPLRPPVRPPFRPPVRPPVRPPLRP; Synthetic antimicrobial peptide) [compound 166] | 55
54 | 167 (RRRPFRPPLRPPFRPPLRPPLRPPVRP; Synthetic antimicrobial peptide) [compound 167] | 58
55 | 168 (RRRPLRPPFRPPIRPPVRPPLRPPFRP; Synthetic antimicrobial peptide) [compound 168] | 71
56 | 169 (RRRPIRPPLRPPVRPPFRPPVRPPFRP; Synthetic antimicrobial peptide) [compound 169] | 67
57 | 170 (RRRPIRPPFRPPFRPPFRPPVRPPFRP; Synthetic antimicrobial peptide) [compound 170] | 80
58 | 171 (RRRPIRPPIRPPIRPPIRPPFRPPFRP; Synthetic antimicrobial peptide) [compound 171] | 77
59 | 172 (RRRPFRPPIRPPFRPPIRPPVRPPFRP; Synthetic antimicrobial peptide) [compound 172] | 82
60 | 173 (RRRPLRPPIRPPLRPPVRPPFRPPFRP; Synthetic antimicrobial peptide) [compound 173] | 81
61 | 174 (RRRPIRPPIRPPFRPPLRPPFRPPFRP; Synthetic antimicrobial peptide) [compound 174] | 80
62 | 175 (RRRPFRPPVRPPFRPPLRPPFRPPFRP; Synthetic antimicrobial peptide) [compound 175] | 77
63 | 176 (RRRPLRPPVRPPIRPPIRPPFRPPFRP; Synthetic antimicrobial peptide) [compound 176] | 81
64 | 177 (RRRPFRPPIRPPFRPPIRPPVRPPIRP; Synthetic antimicrobial peptide) [compound 177] | 75
65 | 178 (RRRPLRPPFRPPVRPPFRPPFRPPFRP; Synthetic antimicrobial peptide) [compound 178] | 81
